Patent publication US6605634B2 (Amgen, Inc., priority 1996, dated 2003)

system: production of tumor necrosis factor (TNF) by monocytes activated with bacterial lipopolysaccharide (LPS); test: Lipopolysaccharide-activated Monocyte TNF Production Assay; assay type: cell-based; conditions: Homo sapiens, TNF in culture supernatants by ELISA, read-out: IC50 (concentration of test compounds causing a 50% reduction in TNF production)
Description: Lipopolysaccharide-activated Monocyte TNF Production Assay
Test compounds were evaluated in vitro for the ability to inhibit the production of tumor necrosis factor (TNF) by monocytes activated with bacterial lipopolysaccharide (LPS). Fresh residual source leukocytes (a byproduct of plateletpheresis) were obtained from the local blood bank and peripheral blood mononuclear cells (PBMCs) were isolated by density gradient centrifugation on Ficol-Paque Plus (Pharmacia). PBMCs were suspended at 2×10^6/ml in DMEM supplemented to contain 2% FCS (10 mM), 0.3 mg/ml glutamate, 100 U/ml penicillin G and […] streptomycin sulfate (complete media). Cells were plated into Falcon flatbottom 96 well culture plates (200 μl/well) and cultured overnight at 37° C. and 6% CO2. Nonadherent cells were removed by washing with 200 μl/well of fresh medium. Wells containing adherent cells (˜70% monocytes) were replenished with 100 μl of fresh medium.
Preparation of Test Compound Stock Solutions
Test compounds were dissolved in […]. Compound stock solutions were prepared to an initial concentration of […]. Stocks were diluted initially to 20-200 μM in complete media. Nine two-fold serial dilutions of each compound were then prepared in complete medium.
Treatment of Cells with Test Compounds and Activation of TNF Production with Lipopolysaccharide
One hundred microliters of each test compound dilution were added to microtiter wells containing adherent monocytes and 100 μl complete medium. Monocytes were cultured with test compounds for 60 min at which time 25 μl of complete medium containing 30 ng/ml lipopolysaccharide from E. coli K532 were added to each well. Cells were cultured an additional 4 hrs. Culture supernatants were then removed and TNF present in the supernatants was quantified using an ELISA.
Flat bottom 96 well Coming High Binding ELISA plates were coated overnight (4° C.) with 150 μL/well of 3 μg/ml murine anti-human TNFa MAb (R&D Systems #MAB210). Wells were then blocked 1 h at room temperature with 200 μL/well of CaCl2-free ELISA buffer supplemented to contain 20 mg/ml BSA (standard ELISA buffer: […], 150 mM NaCl, 2 mM CaCl2, 0.15 mM thimerosal, pH 7.4). Plates were washed and replenished with 100 μl of test supernatants (diluted 1:3) or standards. Standards consisted of eleven 1.5-fold serial dilutions from a stock of 1 ng/ml recombinant human TNF (R&D Systems). Plates were incubated at room temperature for 1 h on orbital shaker (300 rpm), washed and replenished with 100 μl/well of 0.5 jig/ml goat anti-human TNFa (R&D systems #AB-210-NA) biotinylated at a 4:1 ratio. Plates were incubate for 40 min, washed and replenished with 100 μl/well of alkaline phosphatase-conjugated streptavidin (Jackson ImmunoResearch #016-050-084) at 0.02 μg/ml. Plates were incubated 30 min, washed and replenished with 200 μl well of 1 mg/ml of p-nitrophenyl phosphate. After 30 min, plates were read at 405 nm on a Vmax plate reader.
Standard curve data were fit to a second order polynomial and unknown TNF-a concentrations determined from their OD by solving this equation for concentration. TNF concentrations were then plotted Vs test compound concentration using a second order polynomial. This equation was then used to calculate the concentration of test compounds causing a 50% reduction in TNF production.

CNCC(=O)Nc1ccc2c(-c3ccncc3)c(-c3ccc(F)cc3)[nH]c2n1 [Compound 105, 6-(2′-N-methyl-amino-1′-oxo-ethylamino)-3-(4-pyridyl)-2-(4-fluorophenyl)-7-aza-indole] and CN(C)CC(=O)Nc1ccc2c(-c3ccncc3)c(-c3ccc(F)cc3)[nH]c2n1 [Compound 103, 6-(2′-Dimethylamino-1′-oxo-ethylamino)-3-(4-pyridyl)-2-(4-fluorophenyl)-7-aza-indole] cannot be ordered by IC50: under 1 µM for the first, under 20 µM for the second.

N[C@@H](Cc1ccc(I)cc1)C(=O)Nc1ccc2c(-c3ccncc3)c(-c3ccc(F)cc3)[nH]c2n1 [Compound 71, 6-(3′-(4-iodophenyl)-1′-oxo-2′-aminopropylamino)-3-(4-pyridyl)-2-(4-fluorophenyl)-7-aza-indole] and N[C@@H](Cc1cccnc1)C(=O)Nc1ccc2c(-c3ccncc3)c(-c3ccc(F)cc3)[nH]c2n1 [Compound 111, 6-(3′-(3-pyridyl)-1′-oxo-2′S-aminopropylamino)-3-(4-pyridyl)-2-(4-fluorophenyl)-7-aza-indole] cannot be ordered by IC50: under 1 µM for the first, under 20 µM for the second.

N[C@H](C(=O)Nc1ccc2c(-c3ccncc3)c(-c3ccc(F)cc3)[nH]c2n1)c1ccccc1 [Compound 119, 6-(2′-phenyl-1′-oxo-2′S-aminoethylamino)-3-(4-pyridyl)-2-(4-fluorophenyl)-7-aza-indole] and N[C@@H](CCc1ccccc1)C(=O)Nc1ccc2c(-c3ccncc3)c(-c3ccc(F)cc3)[nH]c2n1 [Compound 139, 6-(4′-phenyl-1′-oxo-2′-(L)-aminobutylamino)-3-(4-pyridyl)-2-(4-fluorophenyl)-7-aza-indole] cannot be ordered by IC50: under 1 µM for the first, under 20 µM for the second.

Nc1ccc2c(-c3ccc(F)cc3)c(-c3ccncc3)[nH]c2n1 [Compound 18, 6-Amino-3-(4-fluorophenyl)-2-(4-pyridyl)-7-aza-indole] and Nc1nc2[nH]c(-c3ccc(F)cc3)c(-c3ccncc3)c2cc1F [Compound 28, 6-Amino-5-fluoro-3-(4-pyridyl)-2-(4-fluorophenyl)-7-aza-indole] cannot be ordered by IC50: under 20 µM for the first, under 20 µM for the second.

CC(C)(C)OC(=O)NCCC[C@H](NC(=O)OC(C)(C)C)C(=O)Nc1ccc2c(-c3ccncc3)c(-c3ccc(F)cc3)[nH]c2n1 [Compound 68, 6-(5′-t-butoxycarbonylamino-1′-oxo-2′-t-butoxycarbonylaminopentylamino)-3-(4-pyridyl)-2-(4-fluorophenyl)-7-aza-indole] and CC(C)(C)OC(=O)N[C@@H](Cc1cncn1C(=O)OC(C)(C)C)C(=O)Nc1ccc2c(-c3ccncc3)c(-c3ccc(F)cc3)[nH]c2n1 [Compound 112] cannot be ordered by IC50: under 20 µM for the first, under 20 µM for the second.

C[S+]([O-])CC[C@H](NC(=O)OC(C)(C)C)C(=O)Nc1ccc2c(-c3ccncc3)c(-c3ccc(F)cc3)[nH]c2n1 (stereo partly drawn) [Compound 108, 6-(4′-methylsulfoxo-1′-oxo-2′S-t-butoxycarbonylaminobutylamino)-3-(4-pyridyl)-2-(4-fluorophenyl)-7-aza-indole] and CC(C)(C)OC(=O)NCC(=O)Nc1ccc2c(-c3ccncc3)c(-c3ccc(F)cc3)[nH]c2n1 [Compound 29, 6-(2′-t-butoxycarbonylamino-1′-oxo-ethylamino)-3-(4-pyridyl)-2-(4-fluorophenyl)-7-aza-indole] cannot be ordered by IC50: under 20 µM for the first, under 20 µM for the second.

NCCCC(=O)Nc1ccc2c(-c3ccncc3)c(-c3ccc(F)cc3)[nH]c2n1 [Compound 22, 6-(4′-amino-1′-oxo-butylamino)-3-(4-pyridyl)-2-(4-fluorophenyl)-7-aza-indole] and NCCC(=O)Nc1ccc2c(-c3ccncc3)c(-c3ccc(F)cc3)[nH]c2n1 [Compound 91, 6-(3′-amino-1′-oxo-propylamino)-3-(4-pyridyl)-2-(4-fluorophenyl)-7-aza-indole] cannot be ordered by IC50: under 20 µM for the first, under 20 µM for the second.

C[C@H](N)C(=O)Nc1ccc2c(-c3ccncc3)c(-c3ccc(F)cc3)[nH]c2n1 [Compound 123, 6-(1′-oxo-2′S-aminopropylamino)-3-(4-pyridyl)-2-(4-fluorophenyl)-7-aza-indole] and C[C@@H](C(=O)Nc1ccc2c(-c3ccncc3)c(-c3ccc(F)cc3)[nH]c2n1)N(C)C [Compound 102, 6-(2S′-dimethylamino-1′-oxo-propylamino)-3-(4-pyridyl)-2-(4-fluorophenyl)-7-aza-indole] cannot be ordered by IC50: under 1 µM for the first, under 1 µM for the second.

CC(C)(C)OC(=O)NCCCC(=O)Nc1ccc2c(-c3ccncc3)c(-c3ccc(F)cc3)[nH]c2n1 [Compound 21, 6-(4′-t-butoxycarbonylamino-1′-oxo-butylamino)-3-(4-pyridyl)-2-(4-fluorophenyl)-7-aza-indole] and CN(CC(=O)Nc1ccc2c(-c3ccncc3)c(-c3ccc(F)cc3)[nH]c2n1)C(=O)OC(C)(C)C [Compound 104, 6-(2′-N-methyl-t-butoxycarbonylamino-1′-oxo-ethylamino)-3-(4-pyridyl)-2-(4-fluorophenyl)-7-aza-indole] cannot be ordered by IC50: under 20 µM for the first, under 1 µM for the second.

N[C@@H](Cc1cccs1)C(=O)Nc1ccc2c(-c3ccncc3)c(-c3ccc(F)cc3)[nH]c2n1 [Compound 133, 6-(3′-(2-thienyl)-1′-oxo-2′-(L)-aminopropylamino)-3-(4-pyridyl)-2-(4-fluorophenyl)-7-aza-indole] and N[C@@H](CCC(=O)O)C(=O)Nc1ccc2c(-c3ccncc3)c(-c3ccc(F)cc3)[nH]c2n1 [Compound 83, 6-(4′-carboxy-1′-oxo-2′-aminobutylamino)-3-(4-pyridyl)-2-(4-fluorophenyl)-7-aza-indole] cannot be ordered by IC50: under 20 µM for the first, under 20 µM for the second.

NCCCCCC(=O)Nc1ccc2c(-c3ccncc3)c(-c3ccc(F)cc3)[nH]c2n1 [Compound 79, 6-(6′-amino-1′-oxo-hexylamino)-3-(4-pyridyl)-2-(4-fluorophenyl)-7-aza-indole] and O=C(Nc1ccc2c(-c3ccncc3)c(-c3ccc(F)cc3)[nH]c2n1)[C@@H]1CCCN1 [Compound 101, 6-(2′-L-prolylamino)-3-(4-pyridyl)-2-(4-fluorophenyl)-7-aza-indole] cannot be ordered by IC50: under 20 µM for the first, under 20 µM for the second.

N[C@@H](CC1CCCCC1)C(=O)Nc1ccc2c(-c3ccncc3)c(-c3ccc(F)cc3)[nH]c2n1 [Compound 81, 6-(3′-cyclohexyl-1′-oxo-2′-aminopropylamino)-3-(4-pyridyl)-2-(4-fluorophenyl)-7-aza-indole] and CC(C)(C)OC(=O)N1CCC[C@H]1C(=O)Nc1ccc2c(-c3ccncc3)c(-c3ccc(F)cc3)[nH]c2n1 [Compound 100, 6-(2′-N-t-Butoxycarbonyl-L-prolylamino)-3-(4-pyridyl)-2-(4-fluorophenyl)-7-aza-indole] cannot be ordered by IC50: under 20 µM for the first, under 20 µM for the second.

O=C(CCN1C(=O)c2ccccc2C1=O)Nc1ccc2c(-c3ccncc3)c(-c3ccc(F)cc3)[nH]c2n1 [Compound 98, 6-(3′-N-phthaloyl-1′-oxo-propylamino)-3-(4-pyridyl)-2-(4-fluorophenyl)-7-aza-indole] and O=C(Nc1ccc2c(-c3ccncc3)c(-c3ccc(F)cc3)[nH]c2n1)[C@@H]1Cc2ccccc2CN1 [Compound 115, 6-(3(S) 1′,2′,3′,4′-tetrahydro-3′-isoguinolinyloxoamino)-3-(4-pyridyl)-2-(4-fluorophenyl)-7-aza-indole] cannot be ordered by IC50: under 20 µM for the first, under 20 µM for the second.

With CC(C)(C)OC(=O)N[C@@H](Cc1cccnc1)C(=O)Nc1ccc2c(-c3ccncc3)c(-c3ccc(F)cc3)[nH]c2n1 [Compound 110, 6-(3′-(3-pyridyl)-1′-oxo-2′S-t-butoxycarbonylaminopropylamino)-3-(4-pyridyl)-2-(4-fluorophenyl)-7-aza-indole] the IC50 was under 20 µM.
